This note sets out measurements from PMC6019134, “1,2,6-Thiadiazinones as Novel Narrow Spectrum Calcium/Calmodulin-Dependent Protein Kinase Kinase 2 (CaMKK2) Inhibitors” (Molecules : A Journal of Synthetic Chemistry and Natural …, 2018).

Each structure is given as a SMILES string.

Assay in all cases: DSF thermal shift, kinase panel
Format in all cases: binding
Settings in all cases: 10 μM compound

The target of one assay is T1, SRPK2A (Homo sapiens, UniProt P78362).
T1 construct: purchased in-house (home-made panel, SGC-style construct names)
T1 sequence (P78362 whole entry): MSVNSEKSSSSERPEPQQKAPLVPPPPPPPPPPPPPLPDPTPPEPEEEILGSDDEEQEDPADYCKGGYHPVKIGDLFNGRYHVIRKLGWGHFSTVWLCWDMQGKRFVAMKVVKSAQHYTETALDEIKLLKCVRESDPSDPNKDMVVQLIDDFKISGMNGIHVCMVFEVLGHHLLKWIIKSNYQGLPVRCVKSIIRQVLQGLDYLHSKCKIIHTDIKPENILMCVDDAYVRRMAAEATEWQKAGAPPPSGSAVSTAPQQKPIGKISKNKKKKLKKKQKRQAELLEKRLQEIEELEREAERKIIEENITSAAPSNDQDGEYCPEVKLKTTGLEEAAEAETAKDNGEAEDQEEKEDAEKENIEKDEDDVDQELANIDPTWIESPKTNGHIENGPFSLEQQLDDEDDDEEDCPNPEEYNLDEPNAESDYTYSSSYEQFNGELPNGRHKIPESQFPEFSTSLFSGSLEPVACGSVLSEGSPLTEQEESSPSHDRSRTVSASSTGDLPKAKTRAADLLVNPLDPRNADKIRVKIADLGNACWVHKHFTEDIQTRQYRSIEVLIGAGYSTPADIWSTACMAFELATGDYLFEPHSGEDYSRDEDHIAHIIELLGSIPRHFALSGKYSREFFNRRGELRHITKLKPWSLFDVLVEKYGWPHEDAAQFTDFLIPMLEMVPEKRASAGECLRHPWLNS
The procedure, abridged:
(§1)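 Read-out is melting temperature shift (dTm), derived by Boltzmann fitting of fluorescence melt curves and referenced to protein/dye with 0.2% DMSO. Kinase 1 µM, compound 10 µM, phosphate buffer pH 7.5 with NaCl and glycerol; ramp 25→95 °C at 0.05 °C/s.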

The target of another assay is T2, CAMK1G (Homo sapiens, UniProt Q96NX5).
T2 construct: purchased in-house (home-made panel, SGC-style construct names)
T2 sequence (Q96NX5 whole entry): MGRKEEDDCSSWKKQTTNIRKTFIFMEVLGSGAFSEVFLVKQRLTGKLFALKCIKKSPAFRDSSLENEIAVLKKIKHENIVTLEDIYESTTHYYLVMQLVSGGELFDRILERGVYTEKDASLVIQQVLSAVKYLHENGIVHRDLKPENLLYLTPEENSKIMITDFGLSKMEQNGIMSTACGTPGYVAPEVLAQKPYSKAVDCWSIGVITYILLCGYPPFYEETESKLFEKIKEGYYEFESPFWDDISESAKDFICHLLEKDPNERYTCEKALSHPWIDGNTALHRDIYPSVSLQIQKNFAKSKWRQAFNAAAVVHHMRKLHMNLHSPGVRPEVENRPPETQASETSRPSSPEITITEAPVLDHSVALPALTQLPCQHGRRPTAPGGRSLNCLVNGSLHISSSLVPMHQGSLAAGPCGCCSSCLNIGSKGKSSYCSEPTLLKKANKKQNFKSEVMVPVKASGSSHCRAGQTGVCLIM
The procedure, abridged:
as §1

The next assay concerns the target T3, BRAFA (Homo sapiens, UniProt P15056).
T3 construct: purchased in-house (home-made panel, SGC-style construct names)
The procedure, abridged: as §1

For another assay, the target named is T4, PHKG2A (Homo sapiens, UniProt P15735).
T4 construct: purchased in-house (home-made panel, SGC-style construct names)
T4 sequence (P15735 1-406): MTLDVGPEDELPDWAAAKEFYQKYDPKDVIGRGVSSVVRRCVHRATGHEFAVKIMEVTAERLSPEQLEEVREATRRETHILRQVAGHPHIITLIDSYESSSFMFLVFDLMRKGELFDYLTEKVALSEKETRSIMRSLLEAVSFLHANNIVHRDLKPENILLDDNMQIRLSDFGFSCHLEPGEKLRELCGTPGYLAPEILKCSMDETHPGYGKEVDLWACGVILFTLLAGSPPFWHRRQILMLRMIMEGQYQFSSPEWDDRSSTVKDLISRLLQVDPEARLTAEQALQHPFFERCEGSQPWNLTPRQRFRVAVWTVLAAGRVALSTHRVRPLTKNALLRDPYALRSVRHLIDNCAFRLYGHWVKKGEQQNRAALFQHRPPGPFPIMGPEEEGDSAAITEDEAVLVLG
The procedure, abridged:
as §1

For a further assay, the target named is T5, BMXA (Homo sapiens, UniProt P51813).
T5 construct: purchased in-house (home-made panel, SGC-style construct names)
T5 sequence (P51813 1-675): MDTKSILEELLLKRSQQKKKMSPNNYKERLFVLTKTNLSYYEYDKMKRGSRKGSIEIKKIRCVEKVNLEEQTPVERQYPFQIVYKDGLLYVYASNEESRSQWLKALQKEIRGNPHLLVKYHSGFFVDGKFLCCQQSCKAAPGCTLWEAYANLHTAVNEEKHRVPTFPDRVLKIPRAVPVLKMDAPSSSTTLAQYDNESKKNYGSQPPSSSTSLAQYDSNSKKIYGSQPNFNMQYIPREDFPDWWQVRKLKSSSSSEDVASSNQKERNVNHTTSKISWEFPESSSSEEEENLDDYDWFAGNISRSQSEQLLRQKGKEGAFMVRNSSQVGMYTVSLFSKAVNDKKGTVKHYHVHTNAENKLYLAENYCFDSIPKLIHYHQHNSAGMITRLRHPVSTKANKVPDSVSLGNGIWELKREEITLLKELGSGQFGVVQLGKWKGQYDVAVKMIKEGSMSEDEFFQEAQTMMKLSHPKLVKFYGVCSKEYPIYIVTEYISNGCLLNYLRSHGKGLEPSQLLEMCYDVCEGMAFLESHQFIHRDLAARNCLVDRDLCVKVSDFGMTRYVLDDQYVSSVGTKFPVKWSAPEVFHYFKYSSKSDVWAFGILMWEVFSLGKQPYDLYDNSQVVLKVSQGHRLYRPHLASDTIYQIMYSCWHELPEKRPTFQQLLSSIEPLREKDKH
The procedure, abridged: as §1

The next assay has as its target T6, CAMKK1 (Homo sapiens, UniProt Q8N5S9).
T6 construct: purchased in-house (home-made panel, SGC-style construct names)
The procedure, abridged:
as §1

The target in a further assay is T7, DYRK1AA (Homo sapiens, UniProt Q13627).
T7 construct: purchased in-house (home-made panel, SGC-style construct names)
The procedure, abridged:
as §1

T6 sequence (Q8N5S9 whole entry): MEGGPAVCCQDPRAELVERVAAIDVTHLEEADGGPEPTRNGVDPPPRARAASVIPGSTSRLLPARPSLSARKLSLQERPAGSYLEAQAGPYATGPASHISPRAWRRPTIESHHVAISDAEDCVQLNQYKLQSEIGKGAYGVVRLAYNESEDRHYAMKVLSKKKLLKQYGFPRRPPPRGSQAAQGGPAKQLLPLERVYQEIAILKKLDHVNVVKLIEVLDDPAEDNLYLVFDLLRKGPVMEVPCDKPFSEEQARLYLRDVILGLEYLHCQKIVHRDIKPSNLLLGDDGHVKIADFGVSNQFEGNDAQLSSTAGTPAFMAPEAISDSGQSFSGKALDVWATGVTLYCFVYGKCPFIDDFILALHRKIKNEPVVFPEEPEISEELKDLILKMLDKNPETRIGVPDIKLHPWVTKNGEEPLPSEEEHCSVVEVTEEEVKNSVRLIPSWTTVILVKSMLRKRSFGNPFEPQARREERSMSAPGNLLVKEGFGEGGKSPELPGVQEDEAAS
T3 sequence (P15056 whole entry): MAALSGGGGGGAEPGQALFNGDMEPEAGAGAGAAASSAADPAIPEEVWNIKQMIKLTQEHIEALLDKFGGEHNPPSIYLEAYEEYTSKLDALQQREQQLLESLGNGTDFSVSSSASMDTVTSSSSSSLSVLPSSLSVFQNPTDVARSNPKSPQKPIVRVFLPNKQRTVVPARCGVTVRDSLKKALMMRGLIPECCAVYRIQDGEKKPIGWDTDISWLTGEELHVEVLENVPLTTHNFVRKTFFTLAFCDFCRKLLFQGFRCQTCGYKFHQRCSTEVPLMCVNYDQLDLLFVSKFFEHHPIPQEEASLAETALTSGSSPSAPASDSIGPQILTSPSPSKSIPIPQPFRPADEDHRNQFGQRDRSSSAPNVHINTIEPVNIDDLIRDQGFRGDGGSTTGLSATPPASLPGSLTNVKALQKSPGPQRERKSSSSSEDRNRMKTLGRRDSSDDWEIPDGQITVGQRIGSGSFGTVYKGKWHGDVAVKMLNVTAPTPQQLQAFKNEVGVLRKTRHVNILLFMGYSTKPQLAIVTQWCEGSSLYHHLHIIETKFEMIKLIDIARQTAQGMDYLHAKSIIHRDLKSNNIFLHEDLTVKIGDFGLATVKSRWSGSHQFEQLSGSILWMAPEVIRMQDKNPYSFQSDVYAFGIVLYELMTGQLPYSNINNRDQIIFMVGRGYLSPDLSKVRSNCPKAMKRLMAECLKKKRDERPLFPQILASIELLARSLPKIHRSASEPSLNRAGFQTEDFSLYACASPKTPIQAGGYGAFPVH

Broadly, the ΔTm is the shift of the melting midpoint relative to a reference. With `Cc1ccc(Nc2nsnc(Nc3cccc(C(N)=O)c3)c2=O)cc1O` [Compound 1, 3-({5-[(3-Hydroxy-4-methylphenyl)amino]-4-oxo-4H-1,2,6-thiadiazin-3-yl}amino)benzamide], the ΔTm at 10 µM was -0.2 °C at SRPK2A; 1.8 °C at CAMK1G; -0.1 °C on BRAFA; 0.7 °C on PHKG2A; 0.1 °C on BMXA; 0 °C on CAMKK1. On DYRK1AA, the ΔTm at 10 µM is -0.6 °C.
Turning to `Cc1ccc(Nc2nsnc(Nc3ccc(C(N)=O)cc3)c2=O)cc1O` [Compound 2, 4-({5-[(3-Hydroxy-4-methylphenyl)amino]-4-oxo-4H-1,2,6-thiadiazin-3-yl}amino)benzamide], the ΔTm at 10 µM was 0.6 °C on SRPK2A; 3.3 °C on CAMK1G; 0.2 °C on BRAFA; 2.4 °C on PHKG2A; -0.1 °C on BMXA; 3.7 °C on CAMKK1. For the same compound, at DYRK1AA, the ΔTm at 10 µM was found to be 0.9 °C.
With `Cc1ccc(Nc2nsnc(Nc3ccc4c(c3)CS(=O)(=O)C4)c2=O)cc1O` [Compound 3, 3-[(2,2-Dioxido-1,3-dihydrobenzo[c]thiophen-5-yl)amino]-5-[(3-hydroxy-4-methylphenyl)amino]-4H-1,2,6-thiadiazin-4-one], the ΔTm at 10 µM at SRPK2A came to 0.1 °C; at CAMK1G, 3 °C; at BRAFA, 0.7 °C; on PHKG2A, 1.6 °C; at BMXA, 0 °C; on CAMKK1, 1.4 °C. Besides, the ΔTm at 10 µM at DYRK1AA is -0.1 °C.
On to `CNC(=O)c1ccccc1Nc1nsnc(Nc2cccc(CS(C)(=O)=O)c2)c1=O` [Compound 4, N-Methyl-2-([5-({3-[(methylsulfonyl)methyl]phenyl}amino)-4-oxo-4H-1,2,6-thiadiazin-3-yl]-amino}-benzamide], for which the shift in melting temperature (ΔTm) at 10 µM is -0.3 °C on SRPK2A; 0.2 °C on CAMK1G; 0.1 °C at BRAFA; 0.2 °C on PHKG2A; 0 °C on BMXA; -0.4 °C on CAMKK1. In addition, the ΔTm at 10 µM on DYRK1AA is -0.5 °C.
Turning to `CNC(=O)c1ccccc1Nc1nsnc(Nc2ccc(N3CCOCC3)cc2)c1=O` [Compound 5, N-Methyl-2-({5-[(4-morpholinophenyl)amino]-4-oxo-4H-1,2,6-thiadiazin-3-yl}amino)benzamide], the ΔTm at 10 µM was -0.1 °C on SRPK2A; 0.1 °C at CAMK1G; 0.4 °C at BRAFA; 0.2 °C at PHKG2A; 0 °C at BMXA; -0.4 °C at CAMKK1. Besides, on DYRK1AA, the thermal shift (ΔTm) at 10 µM was -0.8 °C.
